# Laboratory results: patent US20240174695A1, “Spirocycle Containing Bicyclic Heteroaryl Compounds” (Protego Biopharma, Inc., priority 2022, published 2024)
# Test system: Recombinant amyloidogenic full length light chain protein WIL-FL T46L
# Assay: Differential Scanning Fluorimetry Assay (thermal shift assay); also: test concentration or dose not given here
# Format: binding
# Conditions: Thermal Shift Protein Stability Kit (Biotium), 96-well plates; protein and compounds incubated at RT for 30 min before adding the dye
# Procedure, shortened: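 E. coli-expressed full-length WIL-FL T46L light chain pre-incubated with compound 30 min at RT before dye addition. Tm obtained by curve fitting of the dye thermal-melt signal; value is ΔTm, compound minus vehicle, in °C.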
row,Structure (SMILES),DSF temperature shift: [Tm]compound−[Tm]vehicle
1,Cc1cc(OC[C@H](C)c2ccccc2)cn2nc(CCN3CC4(CCN(c5nccnc5F)CC4)NC3=O)nc12 [Compound 117],**** (>1.5-2.5° C.=****)
2,Cc1nsc(N2CCC3(CC2)CN(CC(O)c2nc4c(C)cc(OCC5(c6ccccc6)CC5)cn4n2)C(=O)N3)n1 (stereo not drawn) [Compound 51],***** (>2.5° C.=*****)
3,Cc1cc(OCC2(c3ccccc3)CC2)cn2nc(C(O)CN3CC4(CCN(c5ccnnc5)CC4)NC3=O)nc12 (stereo not drawn) [Compound 47],**** (>1.5-2.5° C.=****)
4,COC(=O)c1cccc(N2CC3(CN(CCc4nc5c(C)cc(OC[C@H](C)c6ccccc6)cn5n4)C(=O)N3)C2)n1 [Compound 135],***** (>2.5° C.=*****)
5,Cc1cc(OCC2(c3ccccc3)CC2)cn2nc(C(O)CN3CC4(CCN(c5cnc(C#N)c(F)c5)CC4)NC3=O)nc12 (stereo not drawn) [Compound 38],**** (>1.5-2.5° C.=****)
6,Cc1cc(OC[C@H](C)c2ccccc2)cn2nc(C(C)(O)CN3CC4(CCN(c5ccnc(O)c5)CC4)NC3=O)nc12 (stereo partly drawn) [Compound 67],**** (>1.5-2.5° C.=****)
7,CNC(=O)c1cc(N2CCC3(CC2)CN(CC(C)(O)c2nc4c(C)cc(OC[C@H](C)c5ccccc5)cn4n2)C(=O)N3)ccn1 (stereo partly drawn) [Compound 132],**** (>1.5-2.5° C.=****)
8,Cc1cc(N2CC[C@@](C)(c3ccccc3)C2)cn2nc(C(O)CN3CC4(CCN(c5nccn6ccnc56)CC4)NC3=O)nc12 (stereo partly drawn) [Compound 22],***** (>2.5° C.=*****)
9,Cc1cc(N2CC[C@@](C)(c3ccccc3)C2)cn2nc(C(O)CN3CC4(CCN(c5ccnc(O)c5)CC4)NC3=O)nc12 (stereo partly drawn) [Compound 21],***** (>2.5° C.=*****)
10,Cc1cc(OC[C@H](C)c2ccccc2)cn2nc(CCN3CC4(CCN(c5cc(C(F)(F)F)ccn5)CC4)NC3=O)nc12 [Compound 95],*** (>1-1.5° C.=***)
11,Cc1cc(OC[C@H](C)c2ccccc2)cn2nc(C(O)CN3CC4(CCN(c5cccc(O)n5)CC4)NC3=O)nc12 (stereo partly drawn) [Compound 72],**** (>1.5-2.5° C.=****)
12,CC[C@]1(c2ccccc2)CCN(c2cc(C)c3nc(CCN4CC5(CCN(c6nccn7cncc67)CC5)NC4=O)nn3c2)C1 [Compound 6],***** (>2.5° C.=*****)
13,Cc1nccc(N2CCC3(CC2)CN(CC(O)c2nc4c(C)cc(OCC5(c6ccccc6)CC5)cn4n2)C(=O)N3)n1 (stereo not drawn) [Compound 50],**** (>1.5-2.5° C.=****)
14,Cc1cc(OC[C@H](C)c2ccccc2)cn2nc(CCN3CC4(CCN(S(=O)(=O)c5cccnc5)CC4)NC3=O)nc12 [Compound 125],**** (>1.5-2.5° C.=****)
15,Cc1cc(OCC2(c3ccccc3)CC2)cn2nc(C(O)CN3CC4(CCN(c5cnccn5)CC4)NC3=O)nc12 (stereo not drawn) [Compound 58],***** (>2.5° C.=*****)
16,Cc1cc(OC[C@H](C)c2ccccc2)cn2nc(C(O)CN3CC4(CN(c5nccn6cnnc56)C4)NC3=O)nc12 (stereo partly drawn) [Compound 88],***** (>2.5° C.=*****)
17,Cc1cc(OCC2(c3ccccc3)CC2)cn2nc(C(O)CN3CC4(CCN(c5ncc(C(=O)O)n6ccnc56)CC4)NC3=O)nc12 (stereo not drawn) [Compound 54],**** (>1.5-2.5° C.=****)
18,Cc1cc(OC[C@H](C)c2ccccc2)cn2nc(CCN3CC4(CCN(c5ccnc(S(C)(=O)=O)n5)CC4)NC3=O)nc12 [Compound 106],***** (>2.5° C.=*****)
19,Cc1cc(OC[C@H](C)c2ccccc2)cn2nc(CCN3CC4(CCN(C(=O)c5ncccn5)CC4)NC3=O)nc12 [Compound 91],**** (>1.5-2.5° C.=****)
20,Cc1noc(N2CCC3(CC2)CN(CCc2nc4c(C)cc(OC[C@H](C)c5ccccc5)cn4n2)C(=O)N3)n1 [Compound 108],***** (>2.5° C.=*****)
21,COc1cc(N2CCC3(CC2)CN(CC(O)c2nc4c(C)cc(OCC5(c6ccccc6)CC5)cn4n2)C(=O)N3)ccn1 (stereo not drawn) [Compound 142],***** (>2.5° C.=*****)
22,Cc1cc(N2CC[C@](C)(c3ccccc3)C2)cn2nc(CCN3CC4(CCN(c5nccn6ccnc56)CC4)NC3=O)nc12 [Compound 2],***** (>2.5° C.=*****)
23,Cc1cc(OCC2(c3ccccc3)CC2)cn2nc(C(O)CN3CC4(CCN(c5ccnc(Cl)c5)CC4)NC3=O)nc12 (stereo not drawn) [Compound 37],**** (>1.5-2.5° C.=****)
24,Cc1cc(OC[C@H](C)c2ccccc2)cn2nc(CCN3CC4(CCN(C(=O)c5ncnn5C)CC4)NC3=O)nc12 [Compound 92],**** (>1.5-2.5° C.=****)
25,Cc1cc(N2CCC3(CC2)CN(CCc2nc4c(C)cc(OC[C@H](C)c5ccccc5)cn4n2)C(=O)N3)ccn1 [Compound 98],***** (>2.5° C.=*****)
26,Cc1nnc(N2CCC3(CC2)CN(CCc2nc4c(C)cc(OC[C@H](C)c5ccccc5)cn4n2)C(=O)N3)s1 [Compound 122],**** (>1.5-2.5° C.=****)
27,Cc1cc(N2CC3(CN(CC(O)c4nc5c(C)cc(OC[C@H](C)c6ccccc6)cn5n4)C(=O)N3)C2)cc(O)n1 (stereo partly drawn) [Compound 16],***** (>2.5° C.=*****)
